In PubChem BioAssay AID248 (DTP/NCI, 2004):
Inconclusive results and toxic doses are left out. No stated cut-off is given here; in the data, active means T/C of 150% or more; inactive means T/C below 125%.

Tested on: L1210 leukemia ip in BDF1 mice, survival T/C
Experiment: NCI In Vivo Anticancer Drug Screen. Data for tumor model L1210 Leukemia (intraperitoneal) in B6D2F1 (BDF1) mice
Details: endpoint: mean survival time, higher = longer survival
Outline: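 Tumor was transplanted into mice, which were then dosed with test compound or vehicle alone. Survival was recorded for each group, and the treated figure was expressed relative to the control figure.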

[1] = dose: 100.0 mg/kg/injection, schedule: Q01DX009 (ip), vehicle: Klucel (hydroxypropylcellulose) (HPC)
[2] = dose: 200.0 mg/kg/injection, schedule: Q01DX009 (ip), vehicle: Klucel (hydroxypropylcellulose) (HPC)
[3] = dose: 400.0 mg/kg/injection, schedule: Q01DX009 (ip), vehicle: Klucel (hydroxypropylcellulose) (HPC)
[4] = dose: 100.0 mg/kg/injection, schedule: Q04DX003 (ip), vehicle: Klucel (hydroxypropylcellulose) (HPC)
[5] = dose: 200.0 mg/kg/injection, schedule: Q04DX003 (ip), vehicle: Klucel (hydroxypropylcellulose) (HPC)

Measured: T/C

O=C(O)/C=C/C(=O)Nc1ccc([N+](=O)[O-])c(C(F)(F)F)c1
inactive: [1] 107 % of control | [2] 112 % of control

CCOC(=O)C(=CNc1ccc(OCCCOc2ccccc2)cc1)C(=O)OCC
inactive: dose: 100.0 mg/kg/injection, schedule: Q01DX001 (ip), vehicle: gum acacia 98 % of control | dose: 200.0 mg/kg/injection, schedule: Q01DX001 (ip), vehicle: gum acacia 90 % of control | dose: 400.0 mg/kg/injection, schedule: Q01DX001 (ip), vehicle: gum acacia 102 % of control

COc1ccc(C(=O)CCC(=O)O)cc1OC
inactive: dose: 50.0 mg/kg/injection, schedule: Q01DX001 (ip), vehicle: carboxymethylcellulose (CMC) 97 % of control | dose: 100.0 mg/kg/injection, schedule: Q01DX001 (ip), vehicle: carboxymethylcellulose (CMC) 100 % of control | dose: 200.0 mg/kg/injection, schedule: Q01DX001 (ip), vehicle: carboxymethylcellulose (CMC) 92 % of control | dose: 400.0 mg/kg/injection, schedule: Q01DX001 (ip), vehicle: carboxymethylcellulose (CMC) 92 % of control

CCC(C(=O)NC(C)c1ccc(-c2ccccc2)cc1)c1ccccc1 (stereo not given)
inactive: [1] 87 % of control | [2] 92 % of control | [3] 86 % of control

Cc1ccccc1N=C(N)Nc1ccccc1C
inactive: dose: 2.5 mg/kg/injection, schedule: Q01DX009 (ip), vehicle: saline with Tween-80 103 % of control | dose: 5.0 mg/kg/injection, schedule: Q01DX001 (ip), vehicle: carboxymethylcellulose (CMC) 108 % of control | dose: 5.0 mg/kg/injection, schedule: Q01DX009 (ip), vehicle: saline with Tween-80 97 % of control | dose: 6.25 mg/kg/injection, schedule: Q01DX009 (ip), vehicle: other 95 % of control | dose: 6.25 mg/kg/injection, schedule: Q04DX003 (ip), vehicle: other 96 % of control | dose: 10.0 mg/kg/injection, schedule: Q01DX001 (ip), vehicle: carboxymethylcellulose (CMC) 114 % of control | dose: 10.0 mg/kg/injection, schedule: Q01DX009 (ip), vehicle: saline with Tween-80 97 % of control | dose: 12.5 mg/kg/injection, schedule: Q01DX001 (ip), vehicle: other 96 % of control | dose: 12.5 mg/kg/injection, schedule: Q01DX009 (ip), vehicle: other 95 % of control | dose: 12.5 mg/kg/injection, schedule: Q04DX003 (ip), vehicle: other 93 % of control | dose: 20.0 mg/kg/injection, schedule: Q01DX001 (ip), vehicle: carboxymethylcellulose (CMC) 117 % of control | dose: 25.0 mg/kg/injection, schedule: Q01DX001 (ip), vehicle: other 96 % of control | dose: 25.0 mg/kg/injection, schedule: Q01DX009 (ip), vehicle: other 94 % of control | dose: 25.0 mg/kg/injection, schedule: Q04DX003 (ip), vehicle: other 100 % of control

CC1=C(N)/C(=C(/C)C#N)OC1=O
inactive: dose: 100.0 mg/kg/injection, schedule: Q01DX001 (ip), vehicle: saline with Tween-80 92 % of control | dose: 200.0 mg/kg/injection, schedule: Q01DX001 (ip), vehicle: saline with Tween-80 100 % of control | dose: 400.0 mg/kg/injection, schedule: Q01DX001 (ip), vehicle: saline with Tween-80 92 % of control

Nc1nc2nc[nH]c2c(Cl)c1Br
inactive: dose: 100.0 mg/kg/injection, schedule: Q04DX002 (ip), vehicle: Klucel (hydroxypropylcellulose) (HPC) 104 % of control | dose: 200.0 mg/kg/injection, schedule: Q04DX002 (ip), vehicle: Klucel (hydroxypropylcellulose) (HPC) 115 % of control

Cc1[nH]c(=O)[nH]c(=O)c1C
inactive: [1] 106 % of control | [4] 102 % of control | [2] 103 % of control | [5] 98 % of control | [3] 93 % of control | dose: 400.0 mg/kg/injection, schedule: Q04DX003 (ip), vehicle: Klucel (hydroxypropylcellulose) (HPC) 91 % of control

CCNCCCNCC(Cc1ccccc1)c1ccccc1 (stereo not given)
inactive: dose: 100.0 mg/kg/injection, schedule: Q04DX002 (ip), vehicle: saline 102 % of control

O=[N+]([O-])c1ccccc1OCCBr
inactive: [4] 100 % of control | [5] 94 % of control
